According to US20250092031A1, “RIPK3 INHIBITORS AND METHODS OF USE” (Momentum Therapeutics, Inc., priority 2023, published 2025):

Legend:
[1] = biological target: T1, RIPK3 (Homo sapiens, UniProt Q9Y572); assay: RIPK3 kinase assay (radiometric HotSpot, Reaction Biology Corporation); assay type: biochemical
T1 construct: purchased Reaction Biology Corporation (RBC), Malvern, USA (contract assay service)
Description: The assays were performed in Reaction Biology Corporation (RBC), Malvern, USA. Compounds were diluted with DMSO to a final stock concentration of 10 mM and then were tested in a 10-dose IC50 mode with a 3-fold serial dilution starting at […]. All the reactions were carried out at 10 μM ATP and MBP 20 μM as substrates. RIPK3 activity was determined using radiometric HotSpot™ kinase assay protocol and IC50 values were calculated use GraphPad Prism software.

[2] = tested on: Murine L929 cells; assay: Necroptosis inhibition assay in L929 cells (mTNFα + zVAD, Sytox Green); assay type: cell-based; details: Mus musculus, 10 ng/ml mTNFα and 20 μM zVAD, 6 hours, Sytox Green fluorescence
How it was run: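 Murine L929 cells, treated 48 h after seeding with 10 ng/ml mTNFα plus 20 μM zVAD and compound ([…]), 6 h at 37° C. Necroptosis read by Sytox Green fluorescence (500ex/530em), scaled between 0.1% DMSO and TNFα+zVAD wells; IC50 from inhibition curves.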

[3] = tested on: Human HT-29 cells; assay: Necroptosis inhibition assay in HT-29 cells (hTNFα + zVAD + SMAC mimetic, Sytox Green/Hoechst); assay type: cell-based; details: 10 ng/ml hTNFα, 20 μM zVAD and 100 nM SMAC mimetic, 6 hours, Sytox/Hoechst positive cells, read-out: HT29 necroptosis inhibition IC50
Description: Human HT-29 cells (ATCC-HTB-38) were seeded at 10,000 cells/well in a 96-well plate. Cells were treated 48 hours after seeding with 10 ng/ml hTNFα (R&D Systems), 20 μM zVAD (ChemShuttle) and 100 nM SMAC mimetic (MedChem Express) in the presence of different concentrations of compounds ranging from […] to 0.01 μM. Cells treated with 0.1% DMSO or cells treated with TNFα+zVAD+SMAC mimetic were used as control and vehicle respectively.
Assay plates containing cells were incubated for 6 hours at 37° C. and 5% CO2. Necroptosis was assessed using Sytox Green Nucleic Acid Stain (Invitrogen) and Hoechst staining. After incubation, 100 μL of Sytox dye at 2 μM (2×) diluted in HBSS 1× was added to each well. At the same time, Hoechst stain is added to a final concentration of 10 μM and incubated for 15 min at room temperature. Images were taken for Sytox and Hoechst using the Cytation 5 microplate reader with DAPI and GFP filter cubes (Biotek). Sytox and Hoechst positive cells were counted with CellProfiler software.
Percentage of necroptosis inhibition was calculated as the percent compared to control and vehicle conditions which correspond to 100% and 0% respectively. The half-maximum necroptosis inhibition (IC50) levels were calculated using GraphPad Prism software and are shown in Table 3 (NT represents compound not tested).

T1 sequence (Q9Y572 whole entry): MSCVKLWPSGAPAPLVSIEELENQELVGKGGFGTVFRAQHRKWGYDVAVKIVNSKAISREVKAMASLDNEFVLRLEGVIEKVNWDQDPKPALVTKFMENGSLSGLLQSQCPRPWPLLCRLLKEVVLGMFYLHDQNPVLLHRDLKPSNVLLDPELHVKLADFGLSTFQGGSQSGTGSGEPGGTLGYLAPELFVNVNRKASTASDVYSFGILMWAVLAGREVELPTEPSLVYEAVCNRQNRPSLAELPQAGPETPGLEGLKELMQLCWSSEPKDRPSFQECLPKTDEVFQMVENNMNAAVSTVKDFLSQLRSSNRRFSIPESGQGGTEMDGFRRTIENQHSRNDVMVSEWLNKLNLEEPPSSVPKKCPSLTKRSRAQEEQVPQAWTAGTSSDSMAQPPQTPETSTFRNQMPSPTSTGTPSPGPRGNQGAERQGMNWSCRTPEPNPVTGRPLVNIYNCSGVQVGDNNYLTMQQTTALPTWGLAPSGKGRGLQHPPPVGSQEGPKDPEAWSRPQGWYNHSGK

Compound	IC50 [1]	IC50 [2]	IC50 [3]
CN1CCN(Cc2ccc(-c3ccc4c(Nc5ccc6scnc6c5)ccnc4c3)c(F)c2)CC1 [Compound 29, N-(7-(2-fluoro-4-((4-methylpiperazin-1-yl)methyl)phenyl)quinolin-4-yl)benzo[d]thiazol-5-amine]	2.31 nM	494 nM	341 nM
CN1CCN(Cc2ccc(-c3ccc4nccc(Nc5ccc(Cl)c(Cl)c5)c4c3)c(F)c2)CC1 [Compound 31, N-(3,4-dichlorophenyl)-6-(2-fluoro-4-((4-methylpiperazin-1-yl)methyl)phenyl)quinolin-4-amine]	2.75 nM	1660 nM	523 nM
CN1CCN(C(=O)c2ccc(-c3ccc4c(Nc5ccc6scnc6c5)ccnc4c3)cc2)CC1 [Compound 34, (4-(4-(benzo[d]thiazol-5-ylamino)quinolin-7-yl)phenyl)(4-methylpiperazin-1-yl)methanone]	0.65 nM	68.5 nM	119 nM
CN1CCN(C(=O)c2ccc(-c3ccc4nccc(Nc5ccc6scnc6c5)c4c3)cc2)CC1 [Compound 35, (4-(4-(benzo[d]thiazol-5-ylamino)quinolin-6-yl)phenyl)(4-methylpiperazin-1-yl)methanone]	3.97 nM	818 nM	116 nM
CC(C)(C)N1CCN(Cc2ccc(-c3ccc4nccc(Nc5ccc6scnc6c5)c4c3)c(F)c2)CC1 [Compound 36, N-(6-(4-((4-(tert-butyl)piperazin-1-yl)methyl)-2-fluorophenyl)quinolin-4-yl)benzo[d]thiazol-5-amine]	1.28 nM	318 nM	353 nM
CC(C)(C)N1CCN(Cc2ccc(-c3ccc4c(Nc5ccc6scnc6c5)ccnc4c3)c(F)c2)CC1 [Compound 37, N-(7-(4-((4-(tert-butyl)piperazin-1-yl)methyl)-2-fluorophenyl)quinolin-4-yl)benzo[d]thiazol-5-amine]	1.79 nM	445 nM	670 nM
Fc1cc(CN2CCC(F)(F)CC2)ccc1-c1ccc2nccc(Nc3ccc4scnc4c3)c2c1 [Compound 40, N-(6-(4-((4,4-difluoropiperidin-1-yl)methyl)-2-fluorophenyl)quinolin-4-yl)benzo[d]thiazol-5-amine]	18.3 nM	1060 nM	7870 nM
Fc1cc(CN2CCNCC2)ccc1-c1ccc2nccc(Nc3ccc4scnc4c3)c2c1 [Compound 41, N-(6-(2-fluoro-4-(piperazin-1-ylmethyl)phenyl)quinolin-4-yl)benzo[d]thiazol-5-amine]	0.133 nM	365 nM	86.8 nM
Fc1cc(CN2CCCCC2)ccc1-c1ccc2c(Nc3ccc4scnc4c3)ccnc2c1 [Compound 43, N-(7-(2-fluoro-4-(piperidin-1-ylmethyl)phenyl)quinolin-4-yl)benzo[d]thiazol-5-amine]	0.162 nM	188 nM	93.9 nM
O=c1ccccn1Cc1ccc(-c2ccc3nccc(Nc4ccc5scnc5c4)c3c2)c(F)c1 [Compound 47, 1-(4-(4-(benzo[d]thiazol-5-ylamino)quinolin-6-yl)-3-fluorobenzyl)pyridin-2(1H)-one]	0.86 nM	421 nM	1020 nM
c1cc(Nc2ccc3scnc3c2)c2ccc(-c3ccc(OCCN4CCCCC4)cc3)cc2n1 [Compound 50, N-(7-(4-(2-(piperidin-1-yl)ethoxy)phenyl)quinolin-4-yl)benzo[d]thiazol-5-amine]	0.102 nM	320 nM	708 nM
Fc1cc(CN2CC3(CCOCC3)C2)ccc1-c1ccc2nccc(Nc3ccc4scnc4c3)c2c1 [Compound 51, N-(6-(4-(7-oxa-2-azaspiro[3.5]nonan-2-ylmethyl)-2-fluorophenyl)quinolin-4-yl)benzo[d]thiazol-5-amine]	1.88 nM	832 nM	1200 nM
Fc1cc(CN2CC3(CCOCC3)C2)ccc1-c1ccc2c(Nc3ccc4scnc4c3)ccnc2c1 [Compound 52, N-(7-(4-(7-oxa-2-azaspiro[3.5]nonan-2-ylmethyl)-2-fluorophenyl)quinolin-4-yl)benzo[d]thiazol-5-amine]	0.57 nM	323 nM	505 nM
O=C(c1ccc(-c2ccc3nccc(Nc4ccc5scnc5c4)c3c2)c(F)c1)N1CCCCC1 [Compound 53, (4-(4-(benzo[d]thiazol-5-ylamino)quinolin-6-yl)-3-fluorophenyl)(piperidin-1-yl)methanone]	0.72 nM	513 nM	705 nM
Fc1cc(CN2CCCC2)ccc1-c1ccc2c(Nc3ccc4scnc4c3)ccnc2c1 [Compound 54, N-(7-(2-fluoro-4-(pyrrolidin-1-ylmethyl)phenyl)quinolin-4-yl)benzo[d]thiazol-5-amine]	0.308 nM	201 nM	630 nM
O=C(c1ccc(-c2ccc3c(Nc4ccc5scnc5c4)ccnc3c2)c(F)c1)N1CCCCC1 [Compound 61, (4-(4-(benzo[d]thiazol-5-ylamino)quinolin-7-yl)-3-fluorophenyl)(piperidin-1-yl)methanone]	0.029 nM	93.3 nM	94.2 nM
O=C(c1ccc(-c2ccc3nccc(Nc4ccc5scnc5c4)c3c2)c(F)c1)N1CCNCC1 [Compound 249, (4-(4-(benzo[d]thiazol-5-ylamino)quinolin-6-yl)-3-fluorophenyl)(piperazin-1-yl)methanone]	1.75 nM	1260 nM	67.9 nM
O=C1CN(C(=O)c2ccc(-c3ccc4c(Nc5ccc6scnc6c5)ccnc4c3)c(F)c2)CCN1 [Compound 276, 4-(4-(4-(benzo[d]thiazol-5-ylamino)quinolin-7-yl)-3-fluorobenzoyl)piperazin-2-one]	6.89 nM	553 nM	538 nM
O=C(c1ccc(-c2ccc3c(Nc4ccc5scnc5c4)ccnc3c2)c(F)c1)N1CC2(CNC2)C1 [Compound 284, (4-(4-(benzo[d]thiazol-5-ylamino)quinolin-7-yl)-3-fluorophenyl)(2,6-diazaspiro[3.3]heptan-2-yl)methanone]	1.13 nM	960 nM	386 nM
O=C(c1ccc(-c2ccc3nccc(Nc4ccc5scnc5c4)c3c2)c(F)c1)N1CC2(CNC2)C1 [Compound 285, (4-(4-(benzo[d]thiazol-5-ylamino)quinolin-6-yl)-3-fluorophenyl)(2,6-diazaspiro[3.3]heptan-2-yl)methanone]	3.14 nM	2710 nM	129 nM
Fc1cc(CN2CC3(CNC3)C2)ccc1-c1ccc2nccc(Nc3ccc4scnc4c3)c2c1 [Compound 292, N-(6-(4-((2,6-diazaspiro[3.3]heptan-2-yl)methyl)-2-fluorophenyl)quinolin-4-yl)benzo[d]thiazol-5-amine]	3.67 nM	1780 nM	159 nM
